Laboratory results taken from US6924305B2, “Diazocine derivatives and their use as tryptase inhibitors” (Altana Pharma AG, priority 2001, dated 2005).

biological target: human tryptase; experiment: Inhibition of human tryptase (apparent dissociation constant, chromogenic substrate tos-Gly-Pro-arg-pNA); format: biochemical; details: pKiapp = -log Kiapp (mol/l), in presence of substrate, heparin 0.1-50 μg/ml, equilibrium conditions
Excerpt: The documented pathophysiological effects of mast cell tryptase are caused directly by the enzymatic activity of the protease. Accordingly, they are reduced or blocked by inhibitors which inhibit the enzymatic activity of the tryptase. A suitable measure for the affinity of a reversible inhibitor to the target protease is the equilibrium dissociation constant K1 of the enzyme-inhibitor complex. This K1 value can be determined via the effect of the inhibitor on the tryptase-induced cleavage of a chromogenic peptide-p-nitroanilide substrate or a fluorogenic peptide-aminomethylcoumarin substrate.
The dissociation constants for the tryptase-inhibitor complexes are determined under equilibrium conditions in accordance with the general proposals of Bieth (Bieth J G, Pathophysiological Interpretation of kinetic constants of protease inhibitors, Bull. Europ. Physiopath. Resp. 16:183-195, 1980) and the methods of Sommerhoff et al. (Sommerhoff C P et al., A Kazal-type inhibitor of human mast cell tryptase: Isolation from the medical leech Hirudo medicinalis, characterization, and sequence analysis, Biol. Chem. Hoppe-Seyler 375: 685-694, 1994).
Human tryptase is isolated from lung tissue or prepared recombinantly; the specific activity of the protease, determined by titration, is usually greater than 85% of the theoretical value. In the presence of heparin (0.1-50 μg/ml) for stabilizing the protease, constant amounts of the tryptase are incubated with increasing amounts of the inhibitors. After an equilibrium between the reaction partners has formed, the remaining enzyme activity after addition of the peptide-p-nitroanilide substrate tos-Gly-Pro-arg-pNA is determined and the cleavage of the latter is monitored at 405 nm for 3 min. Alternatively, the remaining enzymatic activity can also be determined using fluorogenic substrates. The apparent dissociation constants Klapp (i.e. in the presence of substrate) are subsequently determined by adapting the enzyme rates to the general equation for reversible inhibitors (Morrison J F, Kinetics of the reversible inhibition of enzyme-catalyzed reactions by tight-binding inhibitors, Biochim. Biophys. Acta 185, 269-286, 1969) using non-linear regression: V1/V0=1−{Et+It+Klapp−(Et+ItKlapp)^2−4EtIt]^1/2}/2Et V1 and V0 are the rates in the presence and absence, respectively, of the inhibitor, and Et and It are the tryptase and inhibitor concentrations, respectively.
The apparent dissociation constants determined for the compounds according to the invention are shown in Table A below, where the numbers of the compounds correspond to the numbers of the compounds in the examples [pKlapp=−logKlapp (mol/l)].

SMILES | pKiapp
COC(=O)C1CC(NC(=O)CN2CCC(=O)N(CC(=O)NC3CC(C(=O)OC)N(C(=O)CCc4ccc(CN)cc4)C3)CCC2=O)CN1C(=O)CCc1ccc(CN)cc1.Cl.Cl (centres unmarked) [Compound 1, 1,5-Bis{N,N′-[1-(3-(4-aminomethylphenyl)propionyl)-2-methoxycarbonylpyrrolidin-4-yl]aminocarbonylmethyl}perhydro-1,5-diazocine-2,6-dione dihydrochloride] | 9.05
Cl.Cl.NCc1ccc(CCC(=O)N2CC(NC(=O)CN3CCC(=O)N(CC(=O)NC4CC(C(=O)OCc5ccccc5)N(C(=O)CCc5ccc(CN)cc5)C4)CCC3=O)CC2C(=O)OCc2ccccc2)cc1 (centres unmarked) [Compound 2, 1,5-Bis{N,N′-[1-(3-(4-aminomethylphenyl)propionyl)-2-benzyloxycarbonylpyrrolidin-4-yl]aminocarbonylmethyl}perhydro-1,5-diazocine-2,6-dione dihydrochloride] | 9.22
Cl.Cl.NCc1ccc(CCC(=O)N2CC(NC(=O)CN3CCC(=O)N(CC(=O)NC4CC(C(=O)O)N(C(=O)CCc5ccc(CN)cc5)C4)CCC3=O)CC2C(=O)O)cc1 (centres unmarked) [Compound 3, 1,5-Bis{N,N′-[1-(3-(4-aminomethylphenyl)proplonyl)-2-carboxypyrrlidin-4-yl]-aminocarbonylmethyl}perhydro-1,5-diazocine-2,6-dine dihydrochloride] | 7.43
Cl.Cl.NCc1ccc(CCC(=O)N2CC(NC(=O)CN3CCC(=O)N(CC(=O)NC4CC(C(=O)NC5CC5)N(C(=O)CCc5ccc(CN)cc5)C4)CCC3=O)CC2C(=O)NC2CC2)cc1 (centres unmarked) [Compound 4, 1,5-Bis{N,N′-[1-(3-(4-aminomethylphenyl)propionyl)-2-cyclopropylaminocarbonyl-pyrrolidin-4-yl]aminocarbonylmethyl}perhydro-1,5-diazocine-2,6-dione dihydrochloride] | 9.66
Cl.Cl.NCc1ccc(CCC(=O)N2CC(NC(=O)CN3CCC(=O)N(CC(=O)NC4CC(C(N)=O)N(C(=O)CCc5ccc(CN)cc5)C4)CCC3=O)CC2C(N)=O)cc1 (centres unmarked) [Compound 5, 1,5-Bis{N,N′-[1-(3-(4-aminomethylphenyl)proplonyl)-2-aminocarbonylpyrrolidin-4-yl]-aminocarbonylmethyl}perhydro-1,5-diazocine-2,6-dione dihydrochloride] | 8.80
